The values that follow come from patent publication US20210169993A1, “TREATMENT OF A SUBTYPE OF ASD” (STALICLA SA, priority 2017, published 2021).

The subject of this experiment is ASD phenotype 1 lymphoblastoid cell lines. Briefly: NADH production in Phenotype Mammalian MicroArrays (PM-M, Biolog), ASD phenotype 1 cells. Format: cell-based, human. To be noted: FIG. 1 (AUC) and Table 1 (endpoint absorbance). Here is the method:
From all subjects, blood samples were collected and lymphoblastoid cell lines generated. Briefly, tubes containing anticoagulant citrate dextrose (ACD) were used to collect blood samples via venipuncture, in order to ensure that the blood cells remained metabolically active. The tubes were kept at room temperature and processed within 24 hours.
Cell lines were obtained by immortalization of lymphocytes from blood samples using Epstein-Barr virus.
Energy production of cells was measured using commercially available Phenotype Mammalian MicroArrays (PM-Ms, Biolog, Hayward, Calif., USA).
The compound in each well was designed to be used by the cells, either as the sole energy source or as the metabolic effector influencing the utilization of an energy source (α-D-glucose) added in the cell suspension. […] Before plating, cell viability and number were assessed utilizing a BioRad cell counter and a trypan blue dye. The concentration of live cells required for plating was 4×10^5 cells/mL, corresponding to 20,000 cells per well in a volume of 50 μL. […] Cells were incubated for 48 h at 37° C. in 5% CO2, using the modified Biolog IF-M1 medium.
The Biolog IF-M1 medium was modified for plates PM-M1 to M4 by adding the following to 100 mL of Biolog IF-M1: 1.1 mL of 100× penicillin/streptomycin solution, 0.16 mL of 200 mM glutamine (final concentration 0.3 mM), and 5.3 mL of Fetal Bovine Serum (FBS, final concentration 5%). For plates PM-M5 to M8, 5.5 mM α-D-glucose will be added in place of FBS.
During the 48-hour incubation, the only energy source the cells had was the chemical in the well. After this first incubation, Biolog Redox Dye Mix MB was added (10 μL/well) and the plates were incubated under the same conditions for an additional 24 hours. As the cells metabolized the energy source, tetrazolium dye in the media was reduced, producing a purple color according to the amount of NADH generated.
For the last 24 hours of the experiment, the plates were incubated in the Omnilog system, which collects optical density readings every 15 minutes, generating 96 data-points for each well. The system also elaborated the kinetic curve for the metabolic reaction in each well and extrapolated parameters such as slope, highest point, endpoint, area under the curve (AUC), and lag.
At the end of the 24-hour incubation, the plates were analyzed utilizing a microplate reader with readings at 590 and 750 nm. The first value (A590) indicated the highest absorbance peak of the redox dye and the second value (A750) gave a measure of the background noise. The relative absorbance (A590-750) was calculated per well.

As to “FGF-1(aFGF): growth factor that selectively targets PI3K-Akt-mTOR by binding the receptor tyrosine kinase”, the “production of NADH in ASD phenotype 1 cells compared to TDs and non-phenotype 1 cells” value is on record as “significantly reduced”.

As to IGF-I: insulin-like growth factor 1, the “production of NADH in ASD phenotype 1 cells compared to TDs and non-phenotype 1 cells” value is listed as “no significant differences”.

For IL-1beta: Th1 cytokine, the “production of NADH in ASD phenotype 1 cells compared to TDs and non-phenotype 1 cells” value is “significantly lower”.

Turning to IL-6: Th1 cytokine, the “production of NADH in ASD phenotype 1 cells compared to TDs and non-phenotype 1 cells” value is recorded as “significantly lower”.

As to “PDGF-AB: platelet-derived growth factor AB”, the “production of NADH in ASD phenotype 1 cells compared to TDs and non-phenotype 1 cells” value was “no significant differences”.

With “hGH (Somatotropin): growth factor that selectively targets PI3K-Akt-mTOR by binding the receptor tyrosine kinase”, the “production of NADH in ASD phenotype 1 cells compared to TDs and non-phenotype 1 cells” value is given as “significantly reduced”.
